Experimental data from patent US20110280940A1, “Di-Vanilloyl And Tri-Vanilloyl Derivatives For Use In Anti-Cancer Therapy” (priority 2008, published 2011).

Experiments:
[1] = tested on: A549 non-small-cell-lung cancer cell line; assay: Cellular imaging (quantitative videomicroscopy), global growth ratio, A549; type: cell-based; settings: Homo sapiens, 72 h, read-out: Global Grow Ratio Treated/Ct (GGR T/Ct) determined by Video Quantitative microscopy, A549
WI38 normal fibroblasts = assay: Cellular imaging (quantitative videomicroscopy), global growth ratio, WI38; type: cell-based, human; settings: 50 μM, 72 h
From the text: As the MTT test is based on the mitochondria functions, we also investigated the effects of the di- and tri-vanilloyl derivatives according to the invention on cell proliferation, migration and morphology by means of a cellular imaging approach (Debeir et al., Cytometry 60:29-40, 2004; Debeir et al., IEEE Trans Med Imaging 24:697-711, 2005) either in the human U373-MG glioma cell line, which is apoptosis-resistant but autophagy-sensitive (Lefranc F et al., Neurosurgery 2008) and in the human A549 non-small-cell-lung cancer cell line, which is apoptosis-resistant and autophagy-resistant (Mijatovic T et al., Neoplasia 2006, May; 8(5):402-12).
Investigations have also been performed in human normal fibroblasts (WS1 and WI38—see Tables 4 and 5). Cellular imaging relied on the use of computer-assisted phase-contrast microscopy making possible to film the behaviour of living cells in culture dishes for several days. […]
The behaviour of the cells, in terms of morphology, growth and death were thus investigated. The effect on the overall growth was measured by counting the number of cells on the first (0 h) and the last image (72 h) of each film. […] The ratio GGRtreated cells/GGRcontrol cells, was further calculated thereby obtaining a value that describes the effect of compounds of the present invention on the overall cell growth. […]

Erk2 = Erk2 (Rattus norvegicus, UniProt P63086); assay: Kinase activity assay, Erk2; type: biochemical; settings: 10 μM, 1% DMSO, 15 μM ATP; residual activity
Method: Buffer A: 10 mM MgCl2, 1 mM EGTA, 1 mM DTT, 25 mM Tris-HCl pH 7.5, 50 μg heparin/ml. Buffer C: 60 mM β-glycerophosphate, 15 mM p-nitrophenylphosphate, 25 mM Mops (pH 7.2), 5 mM EGTA, 15 mM MgCl2, 1 mM DTT, 1 mM sodium vanadate, 1 mM phenyl phosphate.
Kinase activities were assayed in Buffer A or C, at 30° C., at a final ATP concentration of 15 μM. Blank values were subtracted and activities expressed in % of the maximal activity, i.e. in the absence of inhibitors. Controls were performed with appropriate dilutions of DMSO.
Erk2 (rat, recombinant) was assayed as described for CDK1 but using the specific substrate Ets1 (amino acids 1-138) in buffer A.

U373-MG glioma cell line = assay: Cellular imaging (quantitative videomicroscopy), global growth ratio, U373; type: cell-based; settings: Homo sapiens, 72 h, read-out: Global Grow Ratio Treated/Ct (GGR T/Ct) determined by Video Quantitative microscopy, U373

Chain of Erk2 (P63086 whole entry): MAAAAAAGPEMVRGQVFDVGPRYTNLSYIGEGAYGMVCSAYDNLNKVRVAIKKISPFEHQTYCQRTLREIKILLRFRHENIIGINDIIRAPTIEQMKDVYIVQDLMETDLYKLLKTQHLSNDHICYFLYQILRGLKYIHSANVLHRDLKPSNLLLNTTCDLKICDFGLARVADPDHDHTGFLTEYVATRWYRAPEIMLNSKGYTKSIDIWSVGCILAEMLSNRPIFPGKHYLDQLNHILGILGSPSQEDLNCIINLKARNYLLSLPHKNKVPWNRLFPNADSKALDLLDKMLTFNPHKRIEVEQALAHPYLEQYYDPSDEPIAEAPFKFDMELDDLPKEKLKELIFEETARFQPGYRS

COc1cc(C(=O)OCCCCCCOC(=O)c2ccc(O)c(OC)c2)ccc1O [DLT11, Hexane-1,6-diyl bis-(4-hydroxy-3-methoxybenzoate)]
activity at 50 µM [1]: 20%

COc1cc(C(=O)OCCOC(=O)c2ccc(O)c(OC)c2)ccc1O [DLT1, Ethane-1,2-diyl bis-(4-hydroxy-3-methoxybenzoate)]
activity at 50 µM [1]: 50%
Global Grow Ratio Treated/Ct (GGR T/Ct) determined by Video Quantitative microscopy, WI38 (WI38 normal fibroblasts): 0.8
% ENZYMATIC ACTIVITY, Erk2 (Erk2): 99%

O=C(OCc1cc(COC(=O)c2ccc(O)c(Cl)c2)cc(COC(=O)c2ccc(O)c(Cl)c2)c1)c1ccc(O)c(Cl)c1 [DLT95-Cl, [3,5-bis[(4-hydroxy-3-chloro-benzoyl)oxymethyl]phenyl]methyl 4-hydroxy-3-chloro-benzoate]
activity at 31 µM (U373-MG glioma cell line): 50%

O=C(OCc1cc(COC(=O)c2ccc(O)c(F)c2)cc(COC(=O)c2ccc(O)c(F)c2)c1)c1ccc(O)c(F)c1 [DLT95-F, [3,5-bis[(4-hydroxy-3-fluoro-benzoyl)oxymethyl]phenyl]methyl 4-hydroxy-3-fluoro-benzoate]
activity at 37 µM (U373-MG glioma cell line): 40%
